Values of other authors, collected in patent US20220241165A1, “ORAL CARE COMPOSITIONS COMPRISING OXALIC ACID” (The Procter & Gamble Company, priority 2021, published 2022).

In the case of `O=C(O)C(=O)O` [oxalate ion], the pKa is given as 4.1.
